Like-named read-outs stand apart in the source and are kept apart here.
Tests used:
Assay type in all cases: cell-based, human
panel of SCLC cell lines = test: CCK-8 cytotoxicity in a panel of SCLC cell lines (statements on the panel); settings: 72 h
Procedure: (§1) The expression levels of DRP1 and DHODH in SCLC lines were compared with non-malignant BEAS 2B cells. […] Previous studies have shown that Leflu and its active metabolite Teri regulate mitochondrial morphology (9,10,26). […] In vitro cytotoxicity effect of Teri and Leflu was tested in a panel of SCLC cell lines. Ten SCLC cell lines were treated with increasing concentrations of each drug for 72 h.
Among the drugs approved for SCLC, lurbinectedin is used to treat patients with metastatic SCLC with disease progression. Lurbinectedin (Lur) is an inhibitor of RNA polymerase II, which is commonly hyperactivated in SCLC, resulting in excessive transcription in tumor cells (44). In this study, we tested the combination of Lur with Teri to see if it may reduce the viability of SCLC cells.

H446 spheroids [1] = test: Immunoblotting of spheroid lysates; settings: for DRP1 phosphorylation at Ser616: Teri 1600 and 3200 nM
Procedure: SCLC total cell lysates were prepared using RIPA (radioimmunoprecipitation assay lysis buffer) lysis buffer. Protein concentration was determined using DC Protein Assay Kit Bio-Rad (Hercules, CA). Samples were then run on SDS-PAGE in 4-15% polyacrylamide gels and transferred onto Immobilon membranes (Millipore, MO), blocked, incubated with specific primary antibodies at 4° C. overnight, and subsequently developed with secondary antibodies. The following primary antibody were used: pan-Actin, Phospho-DRP1 (Ser^616), Phospho-DRP1 (Ser^637), Histone H2B (V^119), Phospho-Histone H2A.X (Ser^139), Phospho-P53 (Ser^15), P-53, Cleaved PARP (Asp^214) (D64E10), Phospho-Chk1 (Ser^345) (133D3) and p21 were from Cell Signaling Technology (City of Industry, CA), β-Actin (Sigma-Aldrich, St. Luis, MO), Phospho RNA Polymerase II (S2) antibody (Bethyl Lab, Montgomery, TX), RNA Polymerase II CTD4H8 (BioLegend, San Diego, CA), DHODH (E-8), DRP1 (C-5), GAPDH (0411), c-Myc (9E10), Tom20 (F-10), FisI (B-5), OPA1 (D-9), antibodies from Santa Cruz Biotechnology (Dallas, TX) and MFN2 (Abcam, Boston, MA) and Chk1, MDM2, Cyclin CDK4 and D1, and E2F1 (Proteintech, Rosemont, IL).
SBC3 and H446 cells were plated at a density of 10,000 cells per well in 96-well ULA round-bottomed plates (S-Bio, Hudson, NH) and incubated for 72 h at 37° C., 5% CO2, and 95% humidity. Spheroids were transferred to low cell attachment dishes, grown for two days, and treated with drug. After treatment, spheroid samples were run with Western blot assay. For spheroid mitochondria visualization, they were stained with 250 nM MitoTracker® Red CMXRos and Hoechst from ThermoFisher Scientific (Waltham, MA) for 2 h after drug treatment. Spheroids were washed, fixated with 4% PFA, transferred into 96-well flat glass-bottom black microplate (Cellvis, Mountain View, CA), and mounted in wells.

H446 spheroids [2] = test: Spheroid MitoSOX assay (mitochondrial superoxide); settings: increase after 40 h
Procedure: The IncuCyte system recorded two days MitoSOX red dye (Thermo Fisher Scientific, Waltham, MA) penetration in live H446 spheroids. Spheroids were labeled with 5 μM of dye and red fluorescence was assessed by IncuCyte software. Fluorescence and brightfield images were acquired on an Axio Observer 7 (Carl Zeiss, Jena, Germany) inverted microscope, equipped with a 10×/0.45 NA Plan-Apochromat objective, TL halogen lamp, Colibri 7, filter set 90 HE, and captured on a Zeiss Axiocam 702 CMOS camera. Exposure times and wavelengths were 15 ms (red fluorescence), 9.4 ms (brightfield), BP 555/30 excitation filter, and QBP 592/25 emission filter.

H446 spheroids [3] = test: Spheroid ATP assay (Cell titer glo); settings: 72 h, Teri 1600 nM, Lur 1600 pM, Teri/Lur 1600 nM/pM
Procedure: Cell titer glo/ATP assay (Promega, Madison, WI) was used for ATP measurement in spheroids. After 72 h of drug treatments, intracellular spheroid's ATP concentration was measured by luminescence following the manufacturer protocol using Tecan Spark 10 plate reader.

SBC3 cells [4] = test: CCK-8 cell viability/cytotoxicity assay, 72 h; settings: Homo sapiens, SBC-3
Procedure: as §1
(§2) Isobologram and CI50 values were calculated using the Chou-Talalay method and IC50 to find synergism (FIG. 3B).

SBC5 cells [5] = test: CCK-8 cell viability/cytotoxicity assay, 72 h
Procedure: as §1, §2

SBC3 cells [6] = test: Imaris quantification of mitochondrial and nuclear areas/morphology
Procedure: (§3) Imaris 9.9.0 (Bitplane, AG), with Surfaces and Cells modules, was used to generate mitochondria morphology data from 2D images and 2D Z-stack subsets. Surfaces were used to evaluate individual mitochondria from cell monolayers and spheroids. Detection parameters were optimized for visible mitochondria and nuclei in each group with varying signal intensities. Roundness ratios were calculated from Surface generated Bounding Box 00 Length measurements. Object lengths less than 0.1 μm were excluded, and lengths greater than 1.26 μm were separately analyzed as clusters. Thresholds were uniformly applied to roundness ratios to categorize mitochondria morphology as elongated (<0.599), intermediate (≥0.600-0.649), or round/fragmentated (≥0.650). The percentage of cells from total number is based on a ratio. A perfectly round object has a ratio of 1.0. The Cells module was used to detect and quantify mitochondria and nucleus area from cell monolayers. Identical parameters were applied to all groups with cell boundary detection based on mitochondria signals. Imaris includes nuclei in cytoplasm measurements, so mitochondrial area is calculated by subtracting nucleus area from cell cytoplasm area. Abnormal nuclei were excluded (<100 μm^2, >750 μm^2).
MitoTracker Red and Hoechst 33342 were used to validate Teri and Leflu effects on intact mitochondrial morphology in SBC3 and SBC5 cells. M1 and MDIVI1 compounds were used as positive controls because they are promoters of mitochondrial fusion. Mitochondrial and nuclear areas were quantified by analyzing object surface area and intensity in Imaris 9.9.0.

SBC5 cells [7] = test: as above; settings: for effect on mitochondrial areas: SBC5
Procedure: as §3
Next, we performed the same analysis with SBC5 cells. […] Mitochondrial elongation in SBC3 cells treated with Teri and Leflu is visible and correlates with Imaris Surface results. […] Although mitochondrial areas of SBC5 cells were not affected by Teri and Leflu treatments, elongations of individual mitochondria were detected with each treatment (FIG. 2I). […] Therefore, it is important to investigate the effects of Teri and Leflu on mitochondrial morphology and cell survival in combination with chemotherapeutic drugs.

[8] = SBC3 cells, 72 h, read-out: IC50

COc1ccc2[nH]c3c(c2c1)CCN[C@]31CS[C@@H]2c3c(OC(C)=O)c(C)c4c(c3[C@H](COC1=O)N1[C@@H]2[C@H]2c3c(cc(C)c(OC)c3O)C[C@@H]([C@@H]1O)N2C)OCO4 [Lurbinectedin, lurbinectedin]
cell cytotoxicity at low doses (panel of SCLC cell lines; H69, H82, H446, SBC3, and SBC5 cells): drastically increased cell cytotoxicity
CDK4 (H446 spheroids [1]): inactivated
DRP1 phosphorylation at Ser616 (H446 spheroids [1]): reduction
mitochondrial superoxide levels (MitoSOX) (H446 spheroids [2]): unaffected
ATP level compared with the control (H446 spheroids [3]): ~60%

C/C(O)=C(\C#N)C(=O)Nc1ccc(C(F)(F)F)cc1 [Teriflunomide, teriflunomide]
IC50 (SBC3 cells [4]; SBC3, CCK-8 72 h, fixed concentrations of Teri and Carbo, read-out: IC50, single treatment and combination treatment): 4.24 µM
IC50 (SBC3 cells [4]; [8]): 2 µM
IC50 (SBC5 cells [5]): 33 µM
IC50 (SBC5 cells [5]; Homo sapiens, SBC-5, 72 h): 30 µM
IC50 (panel of SCLC cell lines; Homo sapiens, five of ten SCLC cell lines, read-out: IC50 in the five sensitive cell lines): < 11 µM
Mitochondrial elongation (Airyscan imaging) (SBC3 cells [6]; SBC3): visible
Mitochondrial area (SBC3 cells [6]; SBC3, 10 μM): 569±19.9 μm^2
Nuclear size (area) (SBC3 cells [6]; SBC3, 10 μM): 386.8±10.86 μm^2
Mitochondrial area (SBC3 cells [6]; SBC3, 20 μM): 604.8±28.9 μm^2
Nuclear size (area) (SBC3 cells [6]; SBC3, 20 μM): 423.5±16.57 μm^2
effect on mitochondrial areas (SBC5 cells [7]): not affected
Nuclear area (SBC5 cells [7]; SBC5, 10 μM): 369.5±6.15 μm^2
Nuclear area (SBC5 cells [7]; SBC5, 20 μM): 369.8±5.94 μm^2
p21 (H446 spheroids [1]): strongly elevated
DRP1 phosphorylation at Ser616 (H446 spheroids [1]): dose-dependent inhibition
mitochondrial superoxide levels (MitoSOX) (H446 spheroids [2]): unaffected
ATP level compared with the control (H446 spheroids [3]): approximately 80%

Cc1oncc1C(=O)Nc1ccc(C(F)(F)F)cc1 [Leflunomide, leflunomide]
IC50 (SBC3 cells [4]; [8]): 8.9 µM
IC50 (SBC5 cells [5]; Homo sapiens, SBC-5, 72 h): 108 µM
IC50 doses compared with Teri (panel of SCLC cell lines; ten SCLC cell lines): much higher
Mitochondrial elongation (Airyscan imaging) (SBC3 cells [6]; SBC3): visible
effect on mitochondrial or nuclear areas (SBC3 cells [6]; SBC3): did not affect
effect on mitochondrial areas (SBC5 cells [7]): not affected
Nuclear area (SBC5 cells [7]; SBC5, 20 μM): 386.8±7.23 μm^2
